Laboratory results taken from US10287301B2 (Achillion Pharmaceuticals, Inc., priority 2015, dated 2019).
Where two headings read alike, the source gives them in different places.

Target: Human Factor D (Homo sapiens (Human), UniProt P00746)
Test: Human Factor D Assay
Type: biochemical
Method in brief: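 Serum-purified human Factor D (80 nM final) was preincubated with test compound at various concentrations for 5 min at room temperature in 50 mM Tris, 1M NaCl, pH 7.5. Z-L-Lys-SBzl and DTNB were then added at 100 μM each. IC50 came from nonlinear regression of reaction rates versus compound concentration.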

[1] = Human Factor D 80 nM, substrate Z-L-Lys-SBzl, read-out: IC50
[2] = Table 3, Human Factor D 80 nM, substrate Z-L-Lys-SBzl, read-out: IC50 (Stars)
[3] = Human Factor D assay of Example 8, Table 2, read-out: IC50
[4] = Human Factor D, Table 3, read-out: IC50

Sequence of Human Factor D (P00746 26-253): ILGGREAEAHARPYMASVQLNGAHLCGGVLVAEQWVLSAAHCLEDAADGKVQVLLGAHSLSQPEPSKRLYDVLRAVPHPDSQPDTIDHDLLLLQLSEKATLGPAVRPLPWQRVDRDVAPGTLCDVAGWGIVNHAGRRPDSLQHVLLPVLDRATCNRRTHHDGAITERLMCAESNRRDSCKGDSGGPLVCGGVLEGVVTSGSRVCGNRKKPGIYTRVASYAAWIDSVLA

`CC(=O)c1cn(CC(=O)N2C[C@H](F)C[C@H]2C(=O)NCc2cccc(Cl)c2)c2ccc(-c3ccnnc3)cc12` [Compound 44, (2S,4R)-1-(2-(3-acetyl-5-(pyridazin-4-yl)-1H-indol-1-yl)acetyl)-N-(3-chlorobenzyl)-4-fluoropyrrolidine-2-carboxamide] was tested, and the IC50 [1] was under 1000 nM.

With `CC(=O)c1cn(CC(=O)N2C[C@H](F)C[C@H]2C(=O)Nc2cccc(-c3ccccc3Cl)c2F)c2ccc(-c3cnc(C(F)(F)F)nc3)cc12` [Compound 191, (2S,4R)-1-(2-(3-acetyl-5-(2-(trifluoromethyl)pyrimidin-5-yl)-1H-indol-1-yl)acetyl)-N-(2′-chloro-2-fluorobiphenyl-3-yl)-4-fluoropyrrolidine-2-carboxamide] the IC50 [1] was under 1000 nM.

Work on `CC(=O)c1nn(CC(=O)N2C3CC[C@@H](C3)[C@H]2C(=O)Nc2cccc(Br)n2)c2ccc(-c3cnc(C)nc3)cc12` [Compound 475, (3S,4S)-2-(2-(3-Acetyl-5-(2-methylpyrimidin-5-yl)-1H-indazol-1-yl)acetyl)-N-(6-bromopyridin-2-yl)-2-azabicyclo[2.2.1]heptane-3-carboxamide] yielded an IC50 [2] of under 1000 nM.

Work on `CC(=O)c1nn(CC(=O)N2[C@@H]3C[C@@H]3C[C@H]2C(=O)NCC(F)=C(C)C)c2ccc(-c3cnc(C)nc3)cc12` [Compound 482, (1R,3S,5R)-2-(2-(3-acetyl-5-(2-methylpyrimidin-5-yl)-1H-indazol-1-yl)acetyl)-N-(2-fluoro-3-methylbut-2-en-1-yl)-2-azabicyclo[3.1.0] hexane-3-carboxamide] yielded an IC50 [2] of under 1000 nM.

`CC(=O)c1nn(CC(=O)N2C[C@H](F)C[C@H]2C(=O)Nc2nn(CC(F)(F)F)cc2Cl)c2ccc(-c3cnc(C)nc3)cc12` [Compound 430, (2S,4R)-1-(2-(3-Acetyl-5-(2-methylpyrimidin-5-yl)-1H-indazol-1-yl)acetyl)-N-(4-chloro-1-(2,2,2-trifluoroethyl)-1H-pyrazol-3-yl)-4-fluoropyrrolidine-2-carboxamide] gave an IC50 [2] of under 1000 nM.

`COCCOCCOCCOCCOCCOc1ncc(-c2ccc3c(c2)c(C(C)=O)nn3CC(=O)N2C[C@H](F)C[C@H]2C(=O)Nc2cccc(Br)n2)cn1` [Compound 316] was tested, and the IC50 [3] was under 1000 nM.

For `Cc1cc2ncc(-c3ccc4c(c3)c(C(N)=O)nn4CC(=O)N3C[C@H](F)C[C@H]3C(=O)Nc3cccc(Br)n3)cn2n1` [Compound 284, 1-(2-((2S,4R)-2-(6-bromopyridin-2-ylcarbamoyl)-4-fluoropyrrolidin-1-yl)-2-oxoethyl)-5-(2-methylpyrazolo[1,5-a]pyrimidin-6-yl)-1H-indazole-3-carboxamide], the IC50 [3] was under 1000 nM.

With `CC(=O)NCc1ncc(-c2ccc3c(c2)c(C(C)=O)nn3CC(=O)N2C[C@H](F)C[C@H]2C(=O)Nc2cccc(Br)n2)cn1` [Compound 406, (2S,4R)-1-(2-(5-(2-(Acetamidomethyl)pyrimidin-5-yl)-3-acetyl-1H-indazol-1-yl)acetyl)-N-(6-bromopyridin-2-yl)-4-fluoropyrrolidine-2-carboxamide] the IC50 [2] was under 1000 nM.

For `CC(=O)c1cn(CC(=O)N2C[C@H](F)C[C@H]2C(=O)Nc2cccc(-c3ccccc3Cl)c2F)c2ccc(-c3cnc(NCC(F)(F)F)nc3)cc12` [Compound 193, (2S,4R)-1-(2-(3-acetyl-5-(2-(2,2,2-trifluoroethylamino)pyrimidin-5-yl)-1H-indol-1-yl)acetyl)-N-(2′-chloro-2-fluorobiphenyl-3-yl)-4-fluoropyrrolidine-2-carboxamide], the IC50 [3] was under 1000 nM.

Compound `NC(=O)c1nn(CC(=O)N2C[C@H](F)C[C@H]2C(=O)Nc2cccc(-c3ccccc3Cl)c2F)cc1-c1ccsc1` [Compound 208, 1-(2-((2S,4R)-2-(2′-chloro-2-fluorobiphenyl-3-ylcarbamoyl)-4-fluoropyrrolidin-1-yl)-2-oxoethyl)-4-(thiophen-3-yl)-1H-pyrazole-3-carboxamide] has an IC50 [3] of 1000 to 10000 nM.

In the case of `CC(=O)c1nn(CC(=O)N2C[C@H](F)C[C@H]2C(=O)NCC23CC4CC(CC(C4)C2)C3)c2ccc(-c3cnc(C)nc3)cc12` [Compound 612, (2S,4R)-1-(2-(3-Acetyl-5-(2-methylpyrimidin-5-yl)-1H-indazol-1-yl)acetyl)-N-(((3S,5S,7S)-adamantan-1-yl)methyl)-4-fluoropyrrolidine-2-carboxamide], the IC50 [4] is reported as under 1000 nM.

`CC(=O)c1nn(CC(=O)N2C[C@H](F)C[C@H]2C(=O)Nc2cccc(Br)n2)c2ccc(-c3cnc(N)[n+]([O-])c3)cc12` [Compound 741, 5-(3-acetyl-1-(2-((2S,4R)-2-((6-Bromopyridin-2-yl)carbamoyl)-4-fluoropyrrolidin-1-yl)-2-oxoethyl)-1H-indazol-5-yl)-2-aminopyrimidine 1-oxide] gave an IC50 [4] of under 1000 nM.

`CC(=O)c1nn(CC(=O)N2C[C@H](F)C[C@H]2C(=O)Nc2cnc(C)c(Br)n2)c2ccc(-c3cnc4ccnn4c3)cc12` [Compound 665, (2S,4R)-1-(2-(3-Acetyl-5-(pyrazolo[1,5-a]pyrimidin-6-yl)-1H-indazol-1-yl)acetyl)-N-(6-bromo-5-methylpyrazin-2-yl)-4-fluoropyrrolidine-2-carboxamide] was tested, and the IC50 [4] was under 1000 nM.

Work on `CC(=O)c1cn(CC(=O)N2C[C@H](F)C[C@H]2C(=O)Nc2cccc(Br)n2)c2ccc(-c3cnc4cc(C)nn4c3)cc12` [Compound 277, (2S,4R)-1-(2-(3-acetyl-5-(2-methylpyrazolo[1,5-a]pyrimidin-6-yl)-1H-indol-1-yl)acetyl)-N-(6-bromopyridin-2-yl)-4-fluoropyrrolidine-2-carboxamide] yielded an IC50 [3] of under 1000 nM.

With `Cc1cccc(NC(=O)[C@@H]2[C@H]3CC[C@H](C3)N2C(=O)Cn2cc(C(N)=O)c3cc(-c4cnc5ncccn45)ccc32)n1` [Compound 695, 5-(Imidazo[1,2-a]pyrimidin-3-yl)-1-(2-((1R,3S,4S)-3-(6-methylpyridin-2-ylcarbamoyl)-2-azabicyclo[2.2.1]heptan-2-yl)-2-oxoethyl)-1H-indole-3-carboxamide] the IC50 [4] was over 10000 nM.

With `CC(=O)c1nn(CC(=O)N2[C@@H]3C[C@@H]3C[C@H]2C(=O)Nc2cccc(OC(F)(F)F)c2F)c2ccc(-c3cnc4ccnn4c3)cc12` [Compound 239, (1R,3S,5R)-2-(2-(3-acetyl-5-(pyrazolo[1,5-a]pyrimidin-6-yl)-1H-indazol-1-yl)acetyl)-N-(2-fluoro-3-(trifluoromethoxy)phenyl)-2-azabicyclo[3.1.0] hexane-3-carboxamide] the IC50 [3] was under 1000 nM.

Compound `CC(=O)c1cn(CC(=O)N2C[C@H](F)C[C@H]2C(=O)Nc2cccc(Br)n2)c2ccc(-c3cnc(N)nc3)cc12` [Compound 219, (2S,4R)-1-(2-(3-acetyl-5-(2-aminopyrimidin-5-yl)-1H-indol-1-yl)acetyl)-N-(6-bromopyridin-2-yl)-4-fluoropyrrolidine-2-carboxamide] has an IC50 [3] of under 1000 nM.

For `CC(=O)c1cn(CC(=O)N2C[C@H](F)C[C@H]2C(=O)NCc2cccnc2)c2ccc(-c3ccnnc3)cc12` [Compound 59, (2S,4R)-1-(2-(3-acetyl-5-(pyridazin-4-yl)-1H-indol-1-yl)acetyl)-4-fluoro-N-(pyridin-3-ylmethyl) pyrrolidine-2-carboxamide], the IC50 was 1000 to 10000 nM.

`CC(=O)c1nn(CC(=O)N2[C@H](C(=O)Nc3cccc(Br)n3)C[C@@]3(CO)C[C@@H]23)c2ccc(-c3cnc(C)nc3)cc12` [Compound 392, (1R,3S,5S)-2-(2-(3-Acetyl-5-(2-Methylpyrimidin-5-yl)-1H-indazol-1-yl)acetyl)-N-(6-bromopyridin-2-yl)-5-(hydroxymethyl)-2-azabicyclo[3.1.0]hexane-3-carboxamide] showed an IC50 [2] of under 1000 nM.
